Drawing on the Kinase Knowledgebase extract (Sharma et al. 2016), this text covers IC50 for 21 molecules.

PIK3CD (Human), sequence (O00329 whole entry, looked up): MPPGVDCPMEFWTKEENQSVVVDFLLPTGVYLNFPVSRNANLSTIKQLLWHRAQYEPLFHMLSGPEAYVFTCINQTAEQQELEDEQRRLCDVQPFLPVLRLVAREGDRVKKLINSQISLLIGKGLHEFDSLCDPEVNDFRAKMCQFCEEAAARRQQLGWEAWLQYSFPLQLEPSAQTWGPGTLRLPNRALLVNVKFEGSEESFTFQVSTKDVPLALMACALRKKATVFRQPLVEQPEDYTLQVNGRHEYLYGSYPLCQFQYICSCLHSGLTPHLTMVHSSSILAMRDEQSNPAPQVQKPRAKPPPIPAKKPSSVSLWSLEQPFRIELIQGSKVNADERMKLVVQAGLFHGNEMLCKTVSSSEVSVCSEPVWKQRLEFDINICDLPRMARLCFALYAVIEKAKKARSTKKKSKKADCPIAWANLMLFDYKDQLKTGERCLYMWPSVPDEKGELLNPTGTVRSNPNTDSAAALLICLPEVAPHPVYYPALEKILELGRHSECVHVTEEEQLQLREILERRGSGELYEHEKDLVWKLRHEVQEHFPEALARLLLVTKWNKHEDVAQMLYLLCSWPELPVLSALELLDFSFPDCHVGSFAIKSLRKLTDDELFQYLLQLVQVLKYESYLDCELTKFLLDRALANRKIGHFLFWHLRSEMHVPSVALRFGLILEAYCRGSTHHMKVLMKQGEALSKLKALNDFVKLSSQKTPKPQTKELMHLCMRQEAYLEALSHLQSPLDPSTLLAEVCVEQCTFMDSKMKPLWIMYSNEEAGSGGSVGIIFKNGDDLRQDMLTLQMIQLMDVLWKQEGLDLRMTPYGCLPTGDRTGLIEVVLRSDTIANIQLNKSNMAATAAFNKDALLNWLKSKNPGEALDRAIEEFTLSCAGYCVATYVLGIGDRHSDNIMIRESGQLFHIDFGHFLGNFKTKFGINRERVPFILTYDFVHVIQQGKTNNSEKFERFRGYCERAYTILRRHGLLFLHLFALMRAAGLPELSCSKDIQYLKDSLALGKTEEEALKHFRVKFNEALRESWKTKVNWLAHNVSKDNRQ

The target of one test is PIK3CA (human) (UniProt P42336). The test can be described thus: Assessment of PIK3CA Kinase Activity.
PIK3CA (human), sequence (P42336 whole entry, looked up): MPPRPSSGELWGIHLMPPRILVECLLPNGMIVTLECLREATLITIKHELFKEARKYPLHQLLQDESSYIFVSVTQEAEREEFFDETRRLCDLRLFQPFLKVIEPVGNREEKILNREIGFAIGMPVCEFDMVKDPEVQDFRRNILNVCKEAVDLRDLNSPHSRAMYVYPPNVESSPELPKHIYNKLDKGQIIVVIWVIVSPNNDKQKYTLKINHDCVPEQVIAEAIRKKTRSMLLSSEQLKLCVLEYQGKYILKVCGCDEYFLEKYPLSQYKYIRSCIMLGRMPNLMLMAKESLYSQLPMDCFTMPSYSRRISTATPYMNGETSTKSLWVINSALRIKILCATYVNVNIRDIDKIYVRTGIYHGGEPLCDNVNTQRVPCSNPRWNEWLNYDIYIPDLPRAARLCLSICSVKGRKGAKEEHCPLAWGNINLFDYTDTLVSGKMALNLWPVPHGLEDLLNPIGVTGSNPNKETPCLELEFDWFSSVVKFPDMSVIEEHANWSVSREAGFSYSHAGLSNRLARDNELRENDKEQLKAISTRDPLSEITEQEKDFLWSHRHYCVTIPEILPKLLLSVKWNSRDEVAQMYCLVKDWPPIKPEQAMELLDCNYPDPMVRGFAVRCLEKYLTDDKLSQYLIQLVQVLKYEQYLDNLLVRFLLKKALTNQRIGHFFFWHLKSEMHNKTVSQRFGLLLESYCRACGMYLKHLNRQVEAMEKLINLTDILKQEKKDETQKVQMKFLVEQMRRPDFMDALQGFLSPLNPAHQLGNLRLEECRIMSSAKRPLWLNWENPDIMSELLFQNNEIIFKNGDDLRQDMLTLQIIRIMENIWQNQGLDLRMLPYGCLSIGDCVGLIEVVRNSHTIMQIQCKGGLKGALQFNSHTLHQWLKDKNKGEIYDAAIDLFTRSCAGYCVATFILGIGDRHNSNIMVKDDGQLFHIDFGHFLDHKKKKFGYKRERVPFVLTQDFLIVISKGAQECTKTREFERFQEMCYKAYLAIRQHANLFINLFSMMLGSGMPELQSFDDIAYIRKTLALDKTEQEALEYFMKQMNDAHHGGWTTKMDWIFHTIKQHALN
The molecule `COc1cccc(-c2nc3c(N4CCOCC4)nc(-n4c(C(C)C)nc5ccccc54)nc3n2C)c1` gave a concentration for half-maximal inhibition (IC50) of 729 nM.

The molecule `Cn1c(CN2CCC(C(C)(C)O)CC2)nc2c(N3CCOCC3)nc(-c3cnc(N)c4ccccc34)nc21` displayed a half-maximal inhibitory concentration (IC50) of 245 nM.

`CCc1nc2ccccc2n1-c1nc(N2CCOCC2)c2nc(CC3CN(C(C)(C)C(N)=O)C3)n(C)c2n1` showed an IC50 of 104 nM.

As for `Cc1c(CN2CCN(C(C)(C)C(N)=O)CC2)sc2c(N3CCOCC3)nc(-c3cncc4[nH]ccc34)nc12`, the half-maximal inhibitory concentration (IC50) was determined as 52.2 nM.

`CN(C)C1CCN(Cc2cc3nc(-c4ccc(O)c5nccn45)nc(N4CCOCC4)c3s2)CC1`: the IC50 worked out at 593 nM.

Turning to `Cn1c(CN2CC(C3CCOCC3)C2)nc2c(N3CCOCC3)nc(-n3c(C4CC4)nc4ccccc43)nc21`, the IC50 amounted to 472 nM.

`CN(C)C1CCN(Cc2cc3nc(-n4ccc5cnccc54)nc(N4CCOCC4)c3s2)CC1` yielded a half-maximal inhibitory concentration (IC50) of 207 nM.

Regarding `CCc1nc2ccccc2n1-c1nc(N2CCOCC2)c2nc(CN3CCN(C(C)(C)CO)CC3)[nH]c2n1`, the IC50 was 215 nM.

In turn, `CCc1nc2ccccc2n1-c1nc(N2CCOCC2)c2nc(CN3C[C@@H]4C[C@H]3CN4C(C)(C)CO)n(C)c2n1` yielded an IC50 of 218 nM.

For the molecule `CCc1nc2ccccc2n1-c1nc(N2CCOCC2)c2nc(C(=O)C3CCN(C(C)(C)C(=O)OC)CC3)n(C)c2n1`, the IC50 came to 83 nM.

In turn, `CCc1nc2ccccc2n1-c1nc(N2CCOCC2)c2nc(CC(=O)N3CCC(C(C)(C)O)CC3)sc2n1` had an IC50 of 132 nM.

In the case of `CCc1nc2ccccc2n1-c1nc(N2CCOCC2)c2nc(CC3CN(C4CCS(=O)(=O)CC4)C3)n(C)c2n1`, the IC50 was found to be 82.5 nM.

In turn, `Cn1c(CN2CCC(C(C)(C)O)CC2)nc2c(N3CCOCC3)nc(-c3n[nH]c4ccccc34)nc21` displayed an IC50 of 2790 nM.

`CC(C)c1nc2ccccc2n1-c1nc(N2CCOCC2)c2nc(-c3cccnc3)n(C)c2n1` displayed an IC50 of 190 nM.

The molecule `CC(C)(C(N)=O)N1CCN(Cc2nc3c(N4CCOCC4)nc(-c4cncc5[nH]ccc45)nc3s2)CC1` came in with a 50% inhibitory concentration (IC50) of 41.6 nM.

The molecule `CCc1nc2ccccc2n1-c1nc(N2CCOCC2)c2nc(CCN3CCOCC3(C)C)n(C)c2n1` yielded an IC50 of 485 nM.

Turning to `CC(C)(C(N)=O)N1CCN(Cc2nc3nc(-c4cccc5nccn45)nc(N4CCOCC4)c3s2)CC1`, the IC50 was 1500 nM.

Consider `COC(C)(C)C1CCN(Cc2nc3c(N4CCOCC4)nc(-c4c(C)oc5ccccc45)nc3n2C)CC1`, for which the IC50 is 1200 nM.

`Cc1nc2ccccc2n1-c1nc(N2CCOCC2)c2oc(CN3CCN(C(C)(C)C(N)=O)CC3)cc2n1` registered a 50% inhibitory concentration (IC50) of 175 nM.

On to `CC(C)c1nc2ccccc2n1-c1nc(N2CCOCC2)c2nc(CN3CCN(C(C)(C)CO)CC3)[nH]c2n1`, for which the IC50 turned out to be 264 nM.

The molecule `c1cc(-c2nc(N3CCOCC3)c3sc(CN4CCC(N5CCOCC5)CC4)cc3n2)c2ccncc2c1` had an IC50 of 5350 nM.

Another test has as its target PIK3CD (Human) (UniProt O00329). As to the kind of experiment: Assessment of PIK3CD Kinase Activity.
The molecule `CCc1nc2ccccc2n1-c1nc(N2CCOCC2)c2nc(CC3CN(C(C)(C)C(N)=O)C3)n(C)c2n1` yielded a 50% inhibitory concentration (IC50) of 1.08 nM.

`CCc1nc2ccccc2n1-c1nc(N2CCOCC2)c2nc(C(=O)C3CCN(C(C)(C)C(=O)OC)CC3)n(C)c2n1` registered a 50% inhibitory concentration (IC50) of 0.61 nM.

What is called IC50 is the concentration needed to halve the response being measured. A higher IC50 goes with weaker potency.
